Assays:
breast cancer cell lines [1] = experiment: Drug response (GI50, 50% reduction in proliferation) of breast cancer cell lines in culture; format: cell-based; conditions: for range of observed drug sensitivities, in words, relative to another drug: comparison of sensitivity ranges across cell lines; for range over which the cell lines varied in sensitivity to the drug: sensitivity = negative base ten logarithm of the 50% growth inhibition concentration, difference between most and least sensitive cell lines
Text: Recently, large datasets describing the effects of various drugs on the growth of cancer cells in culture have been generated for the purpose of accelerating the preclinical evaluation of new compounds. One of largest datasets with respect to the number of drugs and breast cancer cell lines describes the effects of ninety (90) different drugs on seventy (70) different breast cancer cell lines. The dataset includes measurements of the concentration of each drug that causes a 50% reduction in the proliferation of cells in culture (i.e., GI50). […] Acquired resistance to chemotherapeutics or targeted agents is recognized and is being studied intensively. […] There appears to be a relatively large amount of intrinsic variability in the responses to drugs by these tumor-derived cell lines. These intrinsic differences in sensitivity, if replicated in breast tumors, could explain some of the variability in responses of tumors to chemotherapeutic drugs or targeted agents.
Another dataset that is statistically analyzed using lasso regression (e.g., a least absolute shrinkage and selection operator [i.e., lasso] regression model) includes responses of the cancer cell lines to various cancer treatment drugs (e.g., 5, 10, 20, 30, 40, 50 or more drugs). In one example described herein, the datasets include responses from approximately 90 drugs on 70 different breast cancer cell lines. As mentioned elsewhere herein, the drug response data are determined by measuring the concentration of drugs or compounds that causes a 50% reduction (e.g., GI50 or IC50 data) in the proliferation of the cells in culture.
Sensitivity is the negative base ten logarithm of the 50% growth inhibition concentration. In the RPPA dataset, which has the most cell lines, the HER2 overexpressing lines are clearly separated from the others. This difference was used to define HER2 overexpression (e.g., represented by open circles), and the same definition of overexpression versus normal expression is used in the other protein datasets and in other Figures herein. For the glycoprotein and MRM datasets, the base ten logarithms are given on the horizontal axes. The quantitative relationships between HER2 expression levels and drug sensitivities in FIG. 2 are shown in scatterplots, in which each point corresponds to a particular cell line. The protein datasets all include cell lines that overexpress HER2. These cell lines are generally clustered on the right sides of the plots as separate groups.

breast cancer cell lines [2] = conditions: FIG. 2; HER2 over-expressing versus other breast cancer cell lines; cited from earlier work

SMILES	range of observed drug sensitivities, in words, relative to another drug (breast cancer cell lines [1])	range over which the cell lines varied in sensitivity to the drug (breast cancer cell lines [1])	further results
O=c1[nH]c2ccccc2n1C1CCN(Cc2ccc(-c3nc4cc5[nH]cnc5cc4nc3-c3ccccc3)cc2)CC1 [Sigma AKT1,2 inhibitor]	significantly lower	–	–
CC(=O)O[C@@]12CO[C@@H]1C[C@H](O)[C@@]1(C)C(=O)[C@H](O)C3=C(C)[C@@H](OC(=O)[C@H](O)[C@@H](NC(=O)OC(C)(C)C)c4ccccc4)C[C@@](O)([C@@H](OC(=O)c4ccccc4)[C@H]21)C3(C)C [docetaxel]	much smaller range than the sensitivity of the cell lines to rapamycin	–	–
CO[C@H]1C[C@@H]2CC[C@@H](C)[C@@](O)(O2)C(=O)C(=O)N2CCCC[C@H]2C(=O)O[C@H]([C@H](C)C[C@@H]2CC[C@@H](OCCO)[C@H](OC)C2)CC(=O)[C@H](C)/C=C(\C)[C@@H](O)[C@@H](OC)C(=O)[C@H](C)C[C@H](C)/C=C/C=C/C=C/1C [everolimus]	–	3.3 orders of magnitude	–
Nc1ccn([C@@H]2O[C@H](CO)[C@@H](O)C2(F)F)c(=O)n1 [gemcitabine]	–	approximately four	–
CS(=O)(=O)CCNCc1ccc(-c2ccc3ncnc(Nc4ccc(OCc5cccc(F)c5)c(Cl)c4)c3c2)o1 [lapatinib]	–	–	drug sensitivity of HER2 over-expressing cell lines (breast cancer cell lines [2]): comparatively high drug sensitivity
CC(=O)O[C@H]1C(=O)[C@@]2(C)[C@H]([C@H](OC(=O)c3ccccc3)[C@]3(O)C[C@H](OC(=O)[C@H](O)[C@@H](NC(=O)c4ccccc4)c4ccccc4)C(C)=C1C3(C)C)[C@]1(OC(C)=O)CO[C@@H]1C[C@@H]2O [paclitaxel]	much smaller range than the sensitivity of the cell lines to rapamycin	–	–
CO[C@H]1C[C@@H]2CC[C@@H](C)[C@@](O)(O2)C(=O)C(=O)N2CCCC[C@H]2C(=O)O[C@H]([C@H](C)C[C@@H]2CC[C@@H](O)[C@H](OC)C2)CC(=O)[C@H](C)/C=C(\C)[C@@H](O)[C@@H](OC)C(=O)[C@H](C)C[C@H](C)/C=C/C=C/C=C/1C [rapamycin]	–	4.6 orders of magnitude	–
CO[C@H]1C[C@@H]2CC[C@@H](C)[C@@](O)(O2)C(=O)C(=O)N2CCCC[C@H]2C(=O)O[C@H]([C@H](C)C[C@@H]2CC[C@@H](OC(=O)C(C)(CO)CO)[C@H](OC)C2)CC(=O)[C@H](C)/C=C(\C)[C@@H](O)[C@@H](OC)C(=O)[C@H](C)C[C@H](C)/C=C/C=C/C=C/1C [temsirolimus]	–	3.7 orders of magnitude	–
CCC1=C[C@@H]2CN(C1)Cc1c([nH]c3ccccc13)[C@@](C(=O)OC)(c1cc3c(cc1OC)N(C)[C@H]1[C@@](O)(C(=O)OC)[C@H](OC(C)=O)[C@]4(CC)C=CCN5CC[C@]31[C@@H]54)C2 [vinorelbine]	–	approximately four	–

— patent US20150254433A1, “Methods and Models for Determining Likelihood of Cancer Drug Treatment Success Utilizing Predictor Biomarkers, and Methods of Diagnosing and Treating Cancer Using the Biomarkers” (priority 2014, published 2015)
